Patent US4239752A, “O-Demethylseldomycin factor 5 derivatives” (Abbott Laboratories, priority 1979, dated 1980)
Converted amounts (≈) assume the structure as drawn.

What was measured:
[1] = tested on: Gram-positive and Gram-negative organisms; details: Staphylococcus aureus, Klebsiella pneumoniae, Escherchia coli and Proteus species; cited from earlier work
Escherichia coli R3 = assay: in vitro antibiotic activity, two fold dilution test (MIC); format: cell-based; details: Streptomycin Assay Agar with yeast extract, pH 7.9, inoculum approx. 1×10^5
Experimental: (§1) The in vitro antibiotic activity is determined by a two fold dilution test using Streptomycin Assay Agar with yeast extract (at pH 7.9). The inoculum of approximately 1×10^5 of the indicated test organism is delivered by a multiple inoculator. The minimum inhibitory concentrations for a representative compound, O-demethyl-3'-deoxyseldomycin factor 5 is set forth in Table II. The minimum inhibitory concentrations are expressed in micrograms per milliliter.

[2] = tested on: Proteus vulgaris ATCC 6897; assay: as above; format: cell-based; details: ATCC6897, Streptomycin Assay Agar with yeast extract, pH 7.9, inoculum approx. 1×10^5
Experimental: as §1

[3] = tested on: Pseudomonas aeruginosa KY-8512; assay: as above; format: cell-based; details: KY8512, Streptomycin Assay Agar with yeast extract, pH 7.9, inoculum approx. 1×10^5
Experimental: as §1

[4] = tested on: Klebsiella pneumoniae ATCC 10031; assay: as above; format: cell-based; details: ATCC10031, Streptomycin Assay Agar with yeast extract, pH 7.9, inoculum approx. 1×10^5
Experimental: as §1

[5] = tested on: Bacillus subtilis U. of Ill. 10707; assay: as above; format: cell-based; details: Streptomycin Assay Agar with yeast extract, pH 7.9, inoculum approx. 1×10^5
Experimental: as §1

Escherichia coli NR 79 = assay: as above; format: cell-based; details: NR79, Streptomycin Assay Agar with yeast extract, pH 7.9, inoculum approx. 1×10^5
Experimental: as §1

[6] = tested on: Pseudomonas aeruginosa BMH#1; assay: as above; format: cell-based; details: Streptomycin Assay Agar with yeast extract, pH 7.9, inoculum approx. 1×10^5
Experimental: as §1

[7] = tested on: Proteus stuartii ATCC 25825; assay: as above; format: cell-based; details: Streptomycin Assay Agar with yeast extract, pH 7.9, inoculum approx. 1×10^5
Experimental: as §1

Eschericha coli ATCC 26 = assay: as above; format: cell-based; details: Streptomycin Assay Agar with yeast extract, pH 7.9, inoculum approx. 1×10^5
Experimental: as §1

[8] = tested on: Staphylococcus aureus ATCC 6538P; assay: as above; format: cell-based; details: ATCC6538P, Streptomycin Assay Agar with yeast extract, pH 7.9, inoculum approx. 1×10^5
Experimental: as §1

[9] = tested on: Pseudomonas aeruginosa PST; assay: as above; format: cell-based; details: Streptomycin Assay Agar with yeast extract, pH 7.9, inoculum approx. 1×10^5
Experimental: as §1

Escherichia coli R19 = assay: as above; format: cell-based; details: Streptomycin Assay Agar with yeast extract, pH 7.9, inoculum approx. 1×10^5
Experimental: as §1

Escherichia coli R16 = assay: as above; format: cell-based; details: Streptomycin Assay Agar with yeast extract, pH 7.9, inoculum approx. 1×10^5
Experimental: as §1

Escherichia coli R5 = assay: as above; format: cell-based; details: Streptomycin Assay Agar with yeast extract, pH 7.9, inoculum approx. 1×10^5
Experimental: as §1

Escherichia coli 76-2 = assay: as above; format: cell-based; details: 762, Streptomycin Assay Agar with yeast extract, pH 7.9, inoculum approx. 1×10^5
Experimental: as §1

MIC (Escherichia coli R3)	MIC [2]	MIC [3]	MIC [4]	MIC [5]	MIC (Escherichia coli NR 79)	MIC [6]	MIC [7]	MIC (Eschericha coli ATCC 26)	MIC [8]	MIC [9]	MIC (Escherichia coli R19)	MIC (Escherichia coli R16)	MIC (Escherichia coli R5)	MIC (Escherichia coli 76-2)	Compound	antibiotic activity [1]
															COC1COC(O[C@@H]2[C@@H](O)[C@H](O[C@H]3O[C@H](CN)C[C@H](O)[C@H]3N)[C@@H](N)C[C@H]2N)C(N)C1N (stereo partly shown) [Seldomycin factor 5]	highly active, broad-spectrum antibiotic effective against both Gram-positive and Gram-negative organisms
2.5 µg/mL (≈ 5.95 µM)	0.31 µg/mL (≈ 0.737 µM)	1.25 µg/mL (≈ 2.97 µM)	0.04 µg/mL (≈ 0.0951 µM)	0.01 µg/mL (≈ 0.0238 µM)	0.16 µg/mL (≈ 0.38 µM)	0.63 µg/mL (≈ 1.5 µM)	2.5 µg/mL (≈ 5.95 µM)	0.16 µg/mL (≈ 0.38 µM)	0.02 µg/mL (≈ 0.0476 µM)	720 µg/mL (≈ 1710 µM)	0.16 µg/mL (≈ 0.38 µM)	0.4 µg/mL (≈ 0.951 µM)	0.8 µg/mL (≈ 1.9 µM)	0.16 µg/mL (≈ 0.38 µM)	NC[C@@H]1CC[C@@H](N)[C@@H](O[C@H]2[C@H](O)[C@@H](OC3OCC(O)C(N)C3N)[C@H](N)C[C@@H]2N)O1 (stereo partly shown) [O-demethyl-3'-deoxyseldomycin factor 5, O-Demethyl-3'-deoxyseldomycin factor 5]	
